Experimental data: patent publication US20240043527A1 (BioNTech SE, priority 2020, published 2024)

What was measured:
[1] = test system: primary human hepatocytes; assay: Expression and assembly of RiboMab after lipofection of primary human hepatocytes (ELISA, Western Blot); type: cell-based; details: 48 hours post lipofection
Method: (Left) ELISA analyses of RiboMab01 concentrations 48 hours post transfection. (Right) Western Blot analysis of cell culture supernatant from indicated lipofections. Recombinant purified IMAB362 served as reference for Western Blot analysis. Analysis was performed under non-reducing conditions and with HRP-conjugated anti-human antibodies. A mixture of Fcγ-fragment specific and anti-kappa light chain specific antibodies was used for detection of full length IgG, free heavy (HC) and free light chains (LC). Supernatant of untransfected primary human hepatocytes served as mock control. […] RiboMab01 concentration determined via ELISA 48 hours post transfection are shown. Error bars are standard errors of the mean (n=3).
Assembly of full IgG after RNA transfection of hepatocytes.

CHO-K1 cells = assay: Expression and assembly of RiboMab after lipofection of CHO-K1 cells (ELISA); type: cell-based, Chinese hamster; details: 48 hours post lipofection
[2] = Single dose PK study in rats (ELISA); type: in vivo, RjHan:Wister rats; details: single IV dose, post administration
Method: RjHan:Wister rats received a single IV injection of 0.04, 0.10, 0.40 or 1.20 mg/kg of RB_RMAB01 and 3.60 mg/kg of IMAB362 reference protein. Plasma was sampled 2, 6, 8, 10, 22, 24, 27, 30, 48, 72, 96, 168, 216, 264 and 336 hours post administration. RiboMab01 concentrations in plasma measured via ELISA are shown. Error bars are standard errors of the mean (n=3).

MDA-MB-231 cells [3] = assay: Ex vivo ADCC assay with serum of dosed non-human primates, target-negative control cells; type: cell-based
Method: Non-Human Primates (NHP) received three repetitive doses of 0.1, 0.4 or 1.6 mg/kg RB_RMAB01 once weekly. RiboMab01-containing serum of all monkeys sampled 24 hours (black bars) and 168 hours (white bars) post 1st injection was directed to luciferase-based ex vivo ADCC assays. […] Human PBMCs from two different healthy donors (24 h, donor 1, 168 h, donor 2) served as effector cells. (Panel A) RiboMab01-mediated ADCC of NUG-C4 cells after 48 hours incubation is shown. (Panel B) Unspecific lysis on target-negative MDA-MB-231 cells is shown. Error bars are standard error of the mean (n=3). (Panel C) Serum of NHP No. 14 (1.6 mg/kg RB_RMAB01, RiboMab01 serum concentration 232 μg/mL) collected 48 hours after the 3rd dosing was used for a luciferase-based ex vivo ADCC assays. […] Human PBMCs of a healthy donor served as effector cells. […] Incubation time was 48 hours. Error bars are standard errors of the mean (n=3).
ADCC assays were performed as described in Example 2. […] Purified IMAB362 served as assay reference protein.

[4] = test system: CLDN-18.2+ NUG-C4 transfectants; assay: Ex vivo ADCC assay with plasma of dosed mice; type: cell-based, human; details: 1% plasma sampled 24 hours post 5th IV dosing of 1-30 μg RNA composition, 48 hours, E:T 30:1
Method: (§1) Plasma of mice dosed with five repetitive injections of either 1 μg (˜0.04 mg/kg), 3 μg (˜0.10 mg/kg), 10 μg (˜0.40 mg/kg) and 30 μg (˜1.20 mg/kg) RB_RMAB01 or 80 μg (˜3.20 mg/kg) of IMAB362 was sampled 24 hours post 5th injection and directed to luciferase-based ex vivo ADCC assays. Plasma of untreated mice spiked with IMAB362 served as assay reference. […] (Panel A) RiboMab01 mediated ADCC of NUG-C4 cells after 48 hours incubation with 1% of plasma is shown. […] Error bars are standard errors of the mean (n=3).
(§2) Plasma of untreated mice spiked with IMAB362 served as assay reference.

MDA-MB-231 cells [5] = assay: Ex vivo ADCC assay with plasma of dosed mice, target-negative control cells; type: cell-based, human; details: mouse plasma
Method: as §1, §2

CLDN-18.2 = molecular target: T1, CLDN-18.2 (Homo sapiens, UniProt P56856); assay: Flow cytometric binding assay on CLDN-18.2+ HEK293 transfectants; details: CHO-K1 supernatant on CLDN-18.2+ HEK293 transfectants
T1 construct: expressed in transfected cells; host or cells: HEK293

binding to CLDN-18.2 polypeptide (CLDN-18.2): bound preferentially
binding to CLDN-18.2 polypeptide (CLDN-18.2; listed as RiboMab01): binds target specific to CLDN-18.2
Substance: CLDN-18.2-targeting RiboMab: CLDN-18.2-targeting IgG antibody (IMAB362 delivered as ribonucleic acid) expressed from mRNAs encoding heavy and light chain
expression and assembly of full IgG in cell supernatant [1]: Fully assembled
expression and assembly of full IgG in cell supernatant ([1]; listed as RiboMab01): expressed
expression and assembly of full IgG in cell supernatant (CHO-K1 cells): Fully assembled
expression and assembly of full IgG in cell supernatant (CHO-K1 cells; listed as RiboMab01): expressed
time of peak concentration [2]: 24 h
unspecific lysis on control cells (MDA-MB-231 cells [3]; FIG. 5 Panel C dilution row): weak unspecific lysis
unspecific lysis on target-negative cells (MDA-MB-231 cells [3]; NHP serum 24 h and 168 h post dosing): Low effector, donor-dependent unspecific lysis
ADCC target cell lysis [4]: high and dose-dependent target cell lysis
ADCC target cell lysis ([4]; listed as RiboMab01): specific tumor cell lysis
unspecific lysis on target-negative cells (MDA-MB-231 cells [5]): No unspecific lysis
